This note sets out measurements from EP4663640A1 (Shanghai Institute of Materia Medica, Chinese Academy of …, priority 2023, dated 2024).

SMILES strings stand for the structures. Like-named read-outs stand apart in the source and are kept apart here. Where only a bound is given, the exact number is not on record here.

Format in all cases: cell-based
The target in one series is T1, hTRPC5 (Homo sapiens, UniProt Q9UL62).
T1 construct: expressed in transfected cells; host or cells: HEK-293
T1 sequence (Q9UL62 1-973): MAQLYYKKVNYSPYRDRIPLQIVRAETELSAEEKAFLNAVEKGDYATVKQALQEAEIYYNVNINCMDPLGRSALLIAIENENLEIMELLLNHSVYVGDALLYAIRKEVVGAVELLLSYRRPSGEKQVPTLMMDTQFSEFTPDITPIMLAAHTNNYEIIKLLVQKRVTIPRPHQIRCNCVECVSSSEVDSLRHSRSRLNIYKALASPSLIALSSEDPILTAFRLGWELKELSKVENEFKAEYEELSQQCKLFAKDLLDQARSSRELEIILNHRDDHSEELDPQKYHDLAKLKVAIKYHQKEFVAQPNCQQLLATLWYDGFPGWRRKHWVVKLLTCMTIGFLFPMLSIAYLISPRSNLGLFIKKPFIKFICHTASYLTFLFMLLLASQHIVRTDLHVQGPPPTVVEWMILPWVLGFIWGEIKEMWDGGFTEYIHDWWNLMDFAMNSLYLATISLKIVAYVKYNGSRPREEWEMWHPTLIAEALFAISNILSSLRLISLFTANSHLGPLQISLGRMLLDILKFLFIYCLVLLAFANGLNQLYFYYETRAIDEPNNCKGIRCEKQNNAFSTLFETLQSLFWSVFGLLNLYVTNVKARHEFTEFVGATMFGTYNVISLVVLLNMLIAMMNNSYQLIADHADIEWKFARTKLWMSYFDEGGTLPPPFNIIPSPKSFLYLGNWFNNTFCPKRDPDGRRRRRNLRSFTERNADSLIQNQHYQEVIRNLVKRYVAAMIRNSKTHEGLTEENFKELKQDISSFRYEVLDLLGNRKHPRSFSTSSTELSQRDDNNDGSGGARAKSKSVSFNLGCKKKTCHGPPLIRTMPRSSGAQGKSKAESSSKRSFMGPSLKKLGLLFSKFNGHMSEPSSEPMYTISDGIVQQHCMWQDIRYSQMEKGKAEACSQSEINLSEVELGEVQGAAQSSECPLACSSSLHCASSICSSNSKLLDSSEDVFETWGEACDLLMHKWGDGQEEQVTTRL
In words: TRPC5 inhibitory activity assay (FLIPR calcium fluorescence, Englerin A stimulation). An outline of the steps: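 HEK-293 cells expressing the human channel, loaded with 4 µM Fluo-4/AM for 60 min at 37 °C, then stimulated with Englerin A (0.3nM final) and read for 600 s.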

Another series concerns the target T2, hERG channel (Homo sapiens, UniProt Q12809).
T2 construct: expressed in transfected cells; host or cells: CHO
In words: hERG channel inhibition assay (Qpatch whole-cell recording, CHO cells expressing hERG). To be noted: for IC50: Table 3, highest test concentration 40 µM, read-out: inhibitory activity IC50 hERG. Here is the method: (§1) CHO cells expressing hERG protein were cultured in 175cm^2 culture flasks. When the cell density grew to 60-80%, the culture medium was removed, and the cells were washed with 7mL PBS, and then 3mL Detachin was added for digestion. After digestion was complete, 7mL culture medium was added for neutralization, and then centrifuged, the supernatant was aspirated, and 5mL culture medium was added for resuspending to ensure that the cell density was 2-5×10^6/mL.
(§2) The single-cell high-impedance sealing and whole-cell pattern formation process were all automatically completed by the Qpatch instrument. After obtaining the whole-cell recording mode, the cell was clamped at -80 mV. […] This voltage stimulus was applied every 15 seconds. After recording for 2 minutes, the extracellular solution was recorded for 2 minutes, and then the drug administration process began. The compound concentration started from the lowest test concentration, and each test concentration was given for 2 minutes. After all concentrations were given continuously, the positive control compound 10 µM Cisapride was given. At least 3 cells (n≥3) were tested for each concentration.
(§3) The stock solution of compound was diluted with extracellular solution, 5 µL of 20 mM compound stock solution was added to 2495 µL of extracellular solution, 500 times diluted to 40 µM, and then 3 times serial dilution was performed in the extracellular solution containing 0.2% DMSO to obtain the final concentration to be tested.
(§4) (5) Data analysis: The experimental data were analyzed by XLFit software.

The target of series [1] is T3, hERG channel (relative to TRPC5) (Homo sapiens, UniProt Q12809).
T3 construct: expressed in transfected cells; host or cells: CHO
T3 sequence (Q12809 whole entry): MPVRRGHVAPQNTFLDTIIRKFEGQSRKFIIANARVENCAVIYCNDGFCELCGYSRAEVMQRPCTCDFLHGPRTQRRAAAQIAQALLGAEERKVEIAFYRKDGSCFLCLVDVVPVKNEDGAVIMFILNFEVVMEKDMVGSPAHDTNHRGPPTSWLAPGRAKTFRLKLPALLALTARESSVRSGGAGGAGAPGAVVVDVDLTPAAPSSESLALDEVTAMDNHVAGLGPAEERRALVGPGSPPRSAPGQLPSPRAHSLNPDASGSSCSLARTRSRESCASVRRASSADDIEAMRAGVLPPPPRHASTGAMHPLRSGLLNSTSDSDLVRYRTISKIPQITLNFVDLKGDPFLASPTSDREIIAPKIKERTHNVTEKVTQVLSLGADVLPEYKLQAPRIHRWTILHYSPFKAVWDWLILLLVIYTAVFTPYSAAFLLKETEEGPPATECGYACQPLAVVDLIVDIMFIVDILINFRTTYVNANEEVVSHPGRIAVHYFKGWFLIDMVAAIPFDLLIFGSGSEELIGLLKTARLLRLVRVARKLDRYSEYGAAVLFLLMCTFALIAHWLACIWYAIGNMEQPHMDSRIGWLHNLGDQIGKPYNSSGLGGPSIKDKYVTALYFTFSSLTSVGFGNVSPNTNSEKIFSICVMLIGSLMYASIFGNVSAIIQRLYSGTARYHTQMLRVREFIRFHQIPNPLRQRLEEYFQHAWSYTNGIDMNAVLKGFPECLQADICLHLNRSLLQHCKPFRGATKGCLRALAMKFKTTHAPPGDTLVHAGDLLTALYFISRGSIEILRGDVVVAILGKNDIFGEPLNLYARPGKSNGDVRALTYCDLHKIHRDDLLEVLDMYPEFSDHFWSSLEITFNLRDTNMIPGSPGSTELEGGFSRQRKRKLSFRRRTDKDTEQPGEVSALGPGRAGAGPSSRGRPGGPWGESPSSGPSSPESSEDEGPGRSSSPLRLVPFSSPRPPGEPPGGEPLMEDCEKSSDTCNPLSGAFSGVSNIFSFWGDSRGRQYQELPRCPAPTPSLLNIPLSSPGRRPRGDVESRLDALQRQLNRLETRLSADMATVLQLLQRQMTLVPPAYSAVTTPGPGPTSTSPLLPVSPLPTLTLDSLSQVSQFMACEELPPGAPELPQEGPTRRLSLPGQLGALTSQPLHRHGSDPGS
The series is described as above. The note with it: human, CHO cells expressing hERG; ratio of IC50 values. Here is the method:
as §1, §2, §3, §4
(The hERG channel carries a current that helps repolarise heart muscle cells.)

The test system of series [2] is primary cultured mouse hepatic stellate cells (HSC). As to the kind of experiment: Inhibition of TGF-β-induced hepatic stellate cell activation (α-SMA labeling). To be noted: 1 µM compound, TGF-β 10 ng/mL, 24 hours; TGF-β alone 11.76 ± 1.47%, unstimulated 0.3 ± 0.04%; Mean ± SEM. How it is done: After primary cultured mouse hepatic stellate cells (HSC) were plated on 96-well black-bottom permeable plates for 24 hours, they were pre-incubated with 1 µM compound E21 and solvent control 0.1% DMSO for 1 hour, and then TGF-β was added to a final concentration of 10 ng/mL, and continued to be cultured in a CO2 incubator for 24 hours. Then the culture medium was aspirated, the plates were washed with 37 °C PBS solution for 3 times, and 4% paraformaldehyde solution was added for 30 minutes for fixation. Then 0.15% Triton X-100 solution was added for permeabilization for 10 minutes; then 5% BSA solution was added for blocking at room temperature for 1 hour; then anti-α-SMA solution (1:300) prepared with 5% BSA solution was added and incubated at 4 °C overnight; the next day, Alexa-488 anti-rabbit fluorescent secondary antibody (1:1000) prepared with 5% BSA solution was added and incubated at room temperature for 1 hour in the dark. […] After the end, the cells were washed 3 times with PBS solution and fluorescence photography was performed. The FITC filter was used to shoot green fluorescence, and the DAPI filter was used to shoot blue fluorescence. ImageJ software was used to count the total number of cells in each field of view, and the number of α-SMA positive cells was manually counted. […]

Setting [3] is: Table 1, TRPC5 channels, HEK-293 cells expressing hTRPC5, read-out: FLIPR IC50.
Setting [4] is: Table 3, read-out: inhibitory activity IC50 TRPC5.

T2 sequence (Q12809 whole entry): as above

`COC1CCC(F)(c2nc3c(c(=O)n(CCCO)c(=O)n3C)n2Cc2ccc(Cl)cc2)CC1` (stereo not shown) [Example E32, 7-(4-chlorobenzyl)-8-(1-fluoro-4-methoxycyclohexyl)-1-(3-hydroxypropyl)-3-methyl-3,7-dihydro-1H-purine-2,6-dione]: the IC50 (commonly the concentration that inhibits the measured activity by half) at hTRPC5 (setting [3]) came to 10.2 nM; on hTRPC5 (setting [4]), 10.2 nM; on hERG channel it was 7520 nM. Moreover, the selectivity ratio at 2 min in series [1] is 737.

`Cn1c(=O)n(CCCO)c(=O)c2c1nc(C1(F)CCC(F)(F)CC1)n2Cc1ccc(F)c(Cl)c1` [Example E68, 7-(3-chloro-4-fluorobenzyl)-1-(3-hydroxypropyl)-3-methyl-8-(1,4,4-trifluorocyclohexyl)-3,7-dihydro-1H-purine-2,6-dione]: the IC50 on hTRPC5 (setting [3]) was 0.58 nM; at hTRPC5 (setting [4]) it was 0.58 nM; at hERG channel, > 40000 nM. Further, in series [1], the selectivity ratio at 2 min is > 69000.

`Cn1c(=O)n(CCCO)c(=O)c2c1nc(C1(F)CCC(C(F)(F)F)CC1)n2Cc1ccc(F)c(F)c1` (stereo not shown) [Example E52]: the IC50 is 1.3 nM on hTRPC5 and > 40000 nM at hERG channel. The selectivity ratio at hERG channel (ratio of IC50 values, read-out: relative selectivity hERG/ TRPC5) is > 30800.

On to `Cn1c(=O)n(CCCO)c(=O)c2c1nc(C1(F)CCC(C(F)(F)F)CC1)n2Cc1ccc(Cl)cc1` (stereo not shown) [Example E21, 7-(4-chlorobenzyl)-8-(1-fluoro-4-(trifluoromethyl)cyclohexyl)-1-(3-hydroxypropyl)-3-methyl-3,7-dihydro-1H-purine-2,6-dione], for which the IC50 at hTRPC5 (setting [3]) is 5.1 nM; at hTRPC5 (setting [4]), 5.1 nM; on hERG channel, > 40000 nM. For the same compound, the selectivity ratio at 2 min in series [1] is > 7840. The “proportion of α-SMA-positive cells” value in series [2] is reported as 5.20 ± 0.74%.
